In patent publication US20230340011A1 (Asteroid Therapeutics, priority 2022, published 2023):

Target: LXRβ (Homo sapiens (Human), UniProt P55055)
Assay: In vitro assay LXRβ: PathHunter NHR CHO cells, LXRβ / Steroid Receptor Co-activator Peptide enzyme fragment complementation
Format: cell-based
Details: PathHunter NHR CHO cells, full-length human LXRβ and SRCP, chemiluminescent signal; read-out: LXRβ PPI
Protocol: PathHunter NHR CHO cells stably transfected with tagged full-length human LXRβ and a nuclear fusion protein containing Steroid Receptor Co-activator Peptide (SRCP). The full-length human LXRβ was tagged with the ProLink™ component of the DiscoverX Enzyme Fragment Complementation (EFC) system and the SRCP domain is fused to the enzyme acceptor component (EA) expressed in the nucleus. Cells were seeded in a total volume of 20 μL into white walled, 384-well microplates and incubated at 37° C. overnight prior to testing. Assay media contained charcoal-dextran filtered serum to reduce the level of hormones present. Final assay vehicle concentration was 1%. […] Microplates were read following signal generation with a PerkinElmer Envision instrument for chemiluminescent signal detection.

LXRβ, sequence (P55055 whole entry, the tested form may be a part): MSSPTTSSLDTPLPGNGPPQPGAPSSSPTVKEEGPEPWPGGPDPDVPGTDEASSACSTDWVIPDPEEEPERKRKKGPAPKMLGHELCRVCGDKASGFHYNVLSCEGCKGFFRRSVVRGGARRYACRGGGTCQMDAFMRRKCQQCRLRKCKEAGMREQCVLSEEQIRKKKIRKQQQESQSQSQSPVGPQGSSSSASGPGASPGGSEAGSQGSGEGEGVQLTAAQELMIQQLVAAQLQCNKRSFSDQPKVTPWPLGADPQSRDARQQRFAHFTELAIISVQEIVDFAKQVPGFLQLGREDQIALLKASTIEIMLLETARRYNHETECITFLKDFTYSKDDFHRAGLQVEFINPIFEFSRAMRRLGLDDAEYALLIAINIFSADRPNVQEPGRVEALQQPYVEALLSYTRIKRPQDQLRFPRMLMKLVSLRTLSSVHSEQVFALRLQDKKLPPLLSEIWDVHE

| SMILES | EC50 |
| --- | --- |
| C[C@H](CCC(=O)N1CCC(CNS(C)(=O)=O)CC1)[C@H]1CC[C@H]2[C@@H]3CC=C4C[C@@H](O)CC[C@]4(C)[C@H]3CC[C@]12C [Example 232, N-((1-((R)-4-((3S,8S,9S,10R,13R,14S,17R)-3-hydroxy-10,13-dimethyl-2,3,4,7,8,9,10,11,12,13,14,15,16,17-tetradecahydro-1H-cyclopenta[a]phenanthren-17-yl)pentanoyl)piperidin-4-yl)methyl)methanesulfonamide] | > 10 µM |
| CC(NS(C)(=O)=O)C1CCN(C(=O)CC[C@@H](C)[C@H]2CC[C@H]3[C@@H]4CC=C5C[C@@H](O)CC[C@]5(C)[C@H]4CC[C@]23C)CC1 (stereo partly drawn) [Example 475, N-(1-(1-((R)-4-((3S,8S,9S,10R,13R,14S,17R)-3-hydroxy-10,13-dimethyl-2,3,4,7,8,9,10,11,12,13,14,15,16,17-tetradecahydro-1H-cyclopenta[a]phenanthren-17-yl)pentanoyl)piperidin-4-yl)ethyl)methanesulfonamide] | > 10 µM |
| C[C@@H]1CCCN(C(=O)CC[C@@H](C)[C@H]2CC[C@H]3[C@@H]4CC=C5C[C@@H](O)CC[C@]5(C)[C@H]4CC[C@]23C)O1 [Example 60, (R)-4-((3S,8S,9S,10R,13R,14S,17R)-3-hydroxy-10,13-dimethyl-2,3,4,7,8,9,10,11,12,13,14,15,16,17-tetradecahydro-1H-cyclopenta[a]phenanthren-17-yl)-1-((R)-6-methyl-1,2-oxazinan-2-yl)pentan-1-one] | 0.25 to 1 µM |
| CON(C(=O)CC[C@@H](C)[C@H]1CC[C@H]2[C@@H]3CC=C4C[C@@H](O)CC[C@]4(C)[C@H]3CC[C@]12C)C(C)C [Example 15, (R)-4-((3S,8S,9S,10R,13R,14S,17R)-3-hydroxy-10,13-dimethyl-2,3,4,7,8,9,10,11,12,13,14,15,16,17-tetradecahydro-1H-cyclopenta[a]phenanthren-17-yl)-N-isopropyl-N-methoxypentanamide] | 1 to 10 µM |
| C[C@H](CCC(=O)N1CCC(OC(F)(F)F)CC1)[C@H]1CC[C@H]2[C@@H]3CC=C4C[C@@H](O)CC[C@]4(C)[C@H]3CC[C@]12C [Example 251, (4R)-4-[(1R,3aS,3bS,7S,9aR,9bS,11aR)-7-hydroxy-9a,11a-dimethyl-1H,2H,3H,3aH,3bH,4H,6H,7H,8H,9H,9aH,9bH,10H,11H,11aH-cyclopenta[a]phenanthren-1-yl]-1-[4-(trifluoromethoxy)piperidin-1-yl]pentan-1-one] | > 10 µM |
| COCCNC(=O)OC[C@@H](C)[C@H]1CC[C@H]2[C@@H]3CC=C4C[C@@H](O)CC[C@]4(C)[C@H]3CC[C@]12C [Example 460, (2S)-2-[(1R,3aS,3bS,7S,9aR,9bS,11aS)-7-hydroxy-9a,11a-dimethyl-1H,2H,3H,3aH,3bH,4H,6H,7H,8H,9H,9aH,9bH,10H,11H,11aH-cyclopenta[a]phenanthren-1-yl]propyl N-(2-methoxyethyl)carbamate] | > 10 µM |
| C[C@H](CCc1ccnnc1)[C@H]1CC[C@H]2[C@@H]3CC=C4C[C@@H](O)CC[C@]4(C)[C@H]3CC[C@]12C [Example 170, (1R,3aS,3bS,7S,9aR,9bS,11aR)-9a,11a-dimethyl-1-[(2R)-4-(pyridazin-4-yl)butan-2-yl]-1H,2H,3H,3aH,3bH,4H,6H,7H,8H,9H,9aH,9bH,10H,11H,11aH-cyclopenta[a]phenanthren-7-ol] | > 10 µM |
| Cc1nnc(N2CCN(C(=O)CC[C@@H](C)[C@H]3CC[C@H]4[C@@H]5CC=C6C[C@@H](O)CC[C@]6(C)[C@H]5CC[C@]34C)CC2)s1 [Example 225, (R)-4-((3S,8S,9S,10R,13R,14S,17R)-3-hydroxy-10,13-dimethyl-2,3,4,7,8,9,10,11,12,13,14,15,16,17-tetradecahydro-1H-cyclopenta[a]phenanthren-17-yl)-1-(4-(5-methyl-1,3,4-thiadiazol-2-yl)piperazin-1-yl)pentan-1-one] | > 10 µM |
| C[C@H](CCC(=O)N1CCN(c2ccnn2C)CC1)[C@H]1CC[C@H]2[C@@H]3CC=C4C[C@@H](O)CC[C@]4(C)[C@H]3CC[C@]12C [Example 226, (R)-4-((3S,8S,9S,10R,13R,14S,17R)-3-hydroxy-10,13-dimethyl-2,3,4,7,8,9,10,11,12,13,14,15,16,17-tetradecahydro-1H-cyclopenta[a]phenanthren-17-yl)-1-(4-(1-methyl-1H-pyrazol-5-yl)piperazin-1-yl)pentan-1-one] | > 10 µM |
| C[C@H](CCC(=O)N1CCC[C@@H](Oc2ccncn2)C1)[C@H]1CC[C@H]2[C@@H]3CC=C4C[C@@H](O)CC[C@]4(C)[C@H]3CC[C@]12C [Example 217, (4R)-4-[(1R,3aS,3bS,7S,9aR,9bS,11aR)-7-hydroxy-9a,11a-dimethyl-1H,2H,3H,3aH,3bH,4H,6H,7H,8H,9H,9aH,9bH,10H,11H,11aH-cyclopenta[a]phenanthren-1-yl]-1-[(3R)-3-(pyrimidin-4-yloxy)piperidin-1-yl]pentan-1-one] | > 10 µM |
| C[C@H](OC(=O)CN(C)C)[C@H]1CC[C@H]2[C@@H]3CC=C4C[C@@H](O)CC[C@]4(C)[C@H]3CC[C@]12C [Example 143, (S)-1-((3S,8S,9S,10R,13S,14S,17S)-3-hydroxy-10,13-dimethyl-2,3,4,7,8,9,10,11,12,13,14,15,16,17-tetradecahydro-1H-cyclopenta[a]phenanthren-17-yl)ethyl dimethylglycinate] | > 10 µM |
| CON(CC(=O)OC(C)(C)C)C(=O)CC[C@@H](C)[C@H]1CC[C@H]2[C@@H]3CC=C4C[C@@H](O)CC[C@]4(C)[C@H]3CC[C@]12C [Example 75, tert-butyl N—((R)-4-((3S,8S,9S,10R,13R,14S,17R)-3-hydroxy-10,13-dimethyl-2,3,4,7,8,9,10,11,12,13,14,15,16,17-tetradecahydro-1H-cyclopenta[a]phenanthren-17-yl)pentanoyl)-N-methoxyglycinate] | 0.25 to 1 µM |
| COCCCON(C)C(=O)CC[C@@H](C)[C@H]1CC[C@H]2[C@@H]3CC=C4C[C@@H](O)CC[C@]4(C)[C@H]3CC[C@]12C [Example 31, (R)-4-((3S,8S,9S,10R,13R,14S,17R)-3-hydroxy-10,13-dimethyl-2,3,4,7,8,9,10,11,12,13,14,15,16,17-tetradecahydro-1H-cyclopenta[a]phenanthren-17-yl)-N-(3-methoxypropoxy)-N-methylpentanamide] | 1 to 10 µM |
| C[C@H](CCC(=O)N1CCN(C(=O)OCCO)CC1)[C@H]1CC[C@H]2[C@@H]3CC=C4C[C@@H](O)CC[C@]4(C)[C@H]3CC[C@]12C [Example 281, 2-hydroxyethyl 4-[(4R)-4-[(1R,3aS,3bS,7S,9aR,9bS,11aR)-7-hydroxy-9a,11a-dimethyl-1H,2H,3H,3aH,3bH,4H,6H,7H,8H,9H,9aH,9bH,10H,11H,11aH-cyclopenta[a]phenanthren-1-yl]pentanoyl]piperazine-1-carboxyla] | > 10 µM |
| C[C@H](CCC(=O)N(C)C)[C@H]1CC[C@H]2[C@@H]3CC=C4C[C@@H](O)C[C@H](O)[C@]4(C)[C@H]3CC[C@]12C [Example 123, (R)-4-((1S,3R,8S,9S,10R,13R,14S,17R)-1,3-dihydroxy-10,13-dimethyl-2,3,4,7,8,9,10,11,12,13,14,15,16,17-tetradecahydro-1H-cyclopenta[a]phenanthren-17-yl)-N,N-dimethylpentanamide] | 1 to 10 µM |
| C[C@H](CCC(=O)N1O[C@@H]2C[C@H]1[C@@H](O)[C@H]2O)[C@H]1CC[C@H]2[C@@H]3CC=C4C[C@@H](O)CC[C@]4(C)[C@H]3CC[C@]12C [Example 55, (R)-1-((1R,4S,5R,6R)-5,6-dihydroxy-2-oxa-3-azabicyclo[2.2.1]heptan-3-yl)-4-((3S,8S,9S,10R,13R,14S,17R)-3-hydroxy-10,13-dimethyl-2,3,4,7,8,9,10,11,12,13,14,15,16,17-tetradecahydro-1H-cyclopenta[a]phenanthren-17-yl)pentan-1-one] | > 10 µM |
| C[C@H](CCC(=O)N1CCC(Oc2ccncn2)CC1)[C@H]1CC[C@H]2[C@@H]3CC=C4C[C@@H](O)CC[C@]4(C)[C@H]3CC[C@]12C [Example 221, (4R)-4-[(1R,3aS,3bS,7S,9aR,9bS,11aR)-7-hydroxy-9a,11a-dimethyl-1H,2H,3H,3aH,3bH,4H,6H,7H,8H,9H,9aH,9bH,10H,11H,11aH-cyclopenta[a]phenanthren-1-yl]-1-[4-(pyrimidin-4-yloxy)piperidin-1-yl]pentan-1-one] | 1 to 10 µM |
| C[C@H](CCC(=O)N1CCC(OC(F)F)CC1)[C@H]1CC[C@H]2[C@@H]3CC=C4C[C@@H](O)CC[C@]4(C)[C@H]3CC[C@]12C [Example 252, (R)-1-(4-(difluoromethoxy)piperidin-1-yl)-4-((3S,8S,9S,10R,13R,14S,17R)-3-hydroxy-10,13-dimethyl-2,3,4,7,8,9,10,11,12,13,14,15,16,17-tetradecahydro-1H-cyclopenta[a]phenanthren-17-yl)pentan-1-one] | > 10 µM |
| C[C@H](CCC(=O)N1CCC(CN(C)S(C)(=O)=O)CC1)[C@H]1CC[C@H]2[C@@H]3CC=C4C[C@@H](O)CC[C@]4(C)[C@H]3CC[C@]12C [Example 230, N-((1-((R)-4-((3S,8S,9S,10R,13R,14S,17R)-3-hydroxy-10,13-dimethyl-2,3,4,7,8,9,10,11,12,13,14,15,16,17-tetradecahydro-1H-cyclopenta[a]phenanthren-17-yl)pentanoyl)piperidin-4-yl)methyl)-N-methylmethanesulfonamide] | > 10 µM |
| C[C@H](CCC(=O)N(C)CCc1ccccn1)[C@H]1CC[C@H]2[C@@H]3CC=C4C[C@@H](O)CC[C@]4(C)[C@H]3CC[C@]12C [Example 293, (4R)-4-[(1R,3aS,3bS,7S,9aR,9bS,11aR)-7-hydroxy-9a,11a-dimethyl-1H,2H,3H,3aH,3bH,4H,6H,7H,8H,9H,9aH,9bH,10H,11H,11aH-cyclopenta[a]phenanthren-1-yl]-N-methyl-N-[2-(pyridin-2-yl)ethyl]pentanamide] | 0.25 to 1 µM |
